According to paper PMC9598282 (Antibiotics, 2022):
Converted amounts (≈) assume the structure as drawn. Bridge positions count the residues as written; N and C are the ends. Square brackets hold non-standard residues; d marks the D form. Peptide text beside a SMILES is read from it. Dab = NCC[C@H](N)C(=O)O

Tests used:
P. aeruginosa 114228 [1] = type: cell-based, Pseudomonas aeruginosa; conditions: 114228, 18 h
Description: (§1) For the preparation of the bacterial solution, overnight grown culture was diluted in 0.85% saline solution, adjusted to 0.5 McFarland turbidity and further diluted in Mueller–Hinton broth for inoculation to a final concentration of 5 × 10^5 colony forming units/mL (CFU/mL). The agents were serially diluted two-fold in a 96-well plate, and equal volumes of bacterial solution were subsequently added to the designated wells. The well consisting of bacterial solution served as the positive control, while the well containing only media served as the negative control. The plate was then incubated at 37 °C for 18 h. After incubation, an Emax Plus microplate reader (Molecular Devices, Union City, CA, USA) was used to measure the optical density (OD) at a wavelength of 590 nm to confirm the turbidity. The antibacterial activity corresponded to the MIC, which is defined as the lowest concentration of the agent necessary to inhibit visible bacterial growth.

P. aeruginosa PAO1 = type: cell-based, Pseudomonas aeruginosa; conditions: wild-type
Description: as §1

A. baumannii 92247 [2] = type: cell-based, Acinetobacter baumannii; conditions: 92247, 18 h
Description: as §1

A. baumannii ATCC 17978 = type: cell-based, Acinetobacter baumannii; conditions: ATCC 17978, 18 h
Description: as §1

A. baumannii LAC-4 = type: cell-based, Acinetobacter baumannii; conditions: LAC-4, 18 h
Description: as §1

E. coli ATCC 25922 = type: cell-based, Escherichia coli; conditions: ATCC 25922, 18 h
Description: as §1

P. aeruginosa PA 108590 = test: MIC, broth microdilution; type: cell-based, Pseudomonas aeruginosa; conditions: β-lactamase harboring isolate
Description: as §1

P. aeruginosa 114228 [3] = test: microbe, parasite or virus in culture; type: cell-based, Pseudomonas aeruginosa
Summary of the method: (§2)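 Antibiotic and guanidinylated polymyxin adjuvant were two-fold serially diluted across perpendicular axes, combined with bacterial suspension and incubated 18 h at 37 °C. Turbidity was read as OD590. FIC index is the sum of each agent's MIC in combination divided by its MIC alone: ≤0.5 synergy, 0.5–4 additivity, >4 antagonism.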

A. baumannii 110193 = test: microbe, parasite or virus in culture; type: cell-based, Acinetobacter baumannii
Summary of the method: as §2

A. baumannii 92247 [4] = test: microbe, parasite or virus in culture; type: cell-based, Acinetobacter baumannii
Summary of the method: as §2

A. baumannii AB027 = test: microbe, parasite or virus in culture; type: cell-based, Acinetobacter baumannii
Summary of the method: as §2

P. aeruginosa 101243 = test: Checkerboard assay; type: cell-based, Pseudomonas aeruginosa
Description: (§3) The adjuvant properties of the guanidinylated polymyxins were evaluated using the checkerboard assay as previously described. The bacterial solution was prepared as described in the antimicrobial susceptibility assay. The antibiotic of interest and the adjuvant were serially diluted two-fold along the x- and y-axis on a 96-well plate, respectively, resulting in varying concentrations of both agents in each well. Equal volumes of bacterial solution were added to the designated wells. The well consisting of bacterial solution served as the positive control, while the wells containing only media served as the negative control. The plate was then incubated at 37 °C for 18 h. After incubation, an Emax Plus microplate reader (Molecular Devices, Union City, CA, USA) was used to measure the OD at a wavelength of 590 nm to confirm the turbidity. The fractional inhibitory concentration (FIC) index was then determined to establish the relationship between the antibiotic and adjuvant. The FIC index corresponds to the sum of the FICs of the antibiotic and adjuvant. The FIC of each agent is calculated by dividing its MIC when it is used in combination by its MIC when used alone. FIC indices ≤0.5, 0.5 < x ≤ 4 and >4 indicate synergy, additivity and antagonism, respectively.

P. aeruginosa P259-96918 = test: Checkerboard assay; type: cell-based, Pseudomonas aeruginosa
Description: as §3

[5] = system: P. aeruginosa P262-101856; test: Checkerboard assay; type: cell-based, Pseudomonas aeruginosa
Description: as §3

[6] = system: P. aeruginosa P264-104354; test: Checkerboard assay; type: cell-based, Pseudomonas aeruginosa
Description: as §3

A. baumannii AB031 = test: Checkerboard assay; type: cell-based, Acinetobacter baumannii
Description: as §3

E. coli 94393 = test: Checkerboard assay; type: cell-based, Escherichia coli
Description: as §3

E. coli 94474 = test: Checkerboard assay; type: cell-based, Escherichia coli
Description: as §3

E. cloacae 121187 = test: microbe, parasite or virus in culture; type: cell-based, Enterobacter cloacae
Description: as §3

K. pneumoniae 113250 = test: Checkerboard assay; type: cell-based, Klebsiella pneumoniae
Description: as §3

K. pneumoniae 113254 = test: Checkerboard assay; type: cell-based, Klebsiella pneumoniae
Description: as §3

[7] = agent alone, one value per checkerboard plate

CC(C)C[C@@H]1NC(=O)[C@@H](Cc2ccccc2)NC(=O)[C@H](CCN)NC(=O)[C@@H](NC(=O)[C@H](CCN)NC(=O)[C@@H](N)[C@@H](C)O)CCNC(=O)[C@H]([C@@H](C)O)NC(=O)[C@H](CCN)NC(=O)[C@H](CCN)NC1=O [PMBN, polymyxin B nonapeptide] (H-T[Dab][Dab][Dab][dF]L[Dab][Dab]T; lactam 3-C (inferred); N-terminus assumed)
MIC (P. aeruginosa 114228 [1]): >256 µg/mL | MIC (P. aeruginosa PAO1): 128 µg/mL (≈ 133 µM) | MIC (A. baumannii 92247 [2]): >256 µg/mL | MIC (A. baumannii ATCC 17978): >256 µg/mL | MIC (A. baumannii LAC-4): >256 µg/mL | MIC (E. coli ATCC 25922): >256 µg/mL | MIC (P. aeruginosa PA 108590): 1 µg/mL (≈ 1.04 µM) | MIC alone (P. aeruginosa 114228 [3]; 114228, 18 h): 256 µg/mL | Fold-potentiation of aztreonam (P. aeruginosa 114228 [3]; with 8 μg/mL adjuvant): 1 | Fold-potentiation of ceftazidime (P. aeruginosa 114228 [3]; with 8 μg/mL adjuvant): 8 | Fold-potentiation of erythromycin (P. aeruginosa 114228 [3]; with 8 μg/mL adjuvant): 1 | Fold-potentiation of rifampicin (P. aeruginosa 114228 [3]; with 8 μg/mL adjuvant): 8 | MIC alone (A. baumannii 110193; 110193, 18 h): 256 µg/mL | MIC alone (A. baumannii 110193; [7]): > 256 µg/mL | Fold-potentiation of ceftazidime (A. baumannii 110193; with 1 μg/mL adjuvant): 1 | Fold-potentiation of erythromycin (A. baumannii 110193; with 1 μg/mL adjuvant): 4 | Fold-potentiation of rifampicin (A. baumannii 110193; with 1 μg/mL adjuvant): 32 | MIC alone (A. baumannii 92247 [4]; 92247, 18 h): 256 µg/mL | Fold potentiation of aztreonam (A. baumannii 92247 [4]; with 8 μg/mL adjuvant): 1 | Fold-potentiation of ceftazidime (A. baumannii 92247 [4]; with 8 μg/mL adjuvant): 1 | Fold-potentiation of erythromycin (A. baumannii 92247 [4]; with 8 μg/mL adjuvant): 1 | Fold-potentiation of rifampicin (A. baumannii 92247 [4]; with 8 μg/mL adjuvant): 32 | MIC alone (A. baumannii AB027; AB027, 18 h): 256 µg/mL | MIC alone (A. baumannii AB027; [7]): > 256 µg/mL | Fold potentiation of aztreonam (A. baumannii AB027; with 8 μg/mL adjuvant): 2 | Fold-potentiation of ceftazidime (A. baumannii AB027; with 8 μg/mL adjuvant): 2 | Fold-potentiation of erythromycin (A. baumannii AB027; with 8 μg/mL adjuvant): 16 | Fold-potentiation of rifampicin (A. baumannii AB027; with 8 μg/mL adjuvant): 64 | MIC alone (P. aeruginosa 101243; [7]): > 256 µg/mL | Fold-potentiation of aztreonam (P. aeruginosa 101243; with 8 μg/mL adjuvant): 2 | Fold-potentiation of ceftazidime (P. aeruginosa 101243; with 8 μg/mL adjuvant): 8 | Fold-potentiation of erythromycin (P. aeruginosa 101243; with 8 μg/mL adjuvant): 1 | Fold-potentiation of rifampicin (P. aeruginosa 101243; with 8 μg/mL adjuvant): 8 | MIC alone (P. aeruginosa P259-96918; [7]): > 256 µg/mL | Fold-potentiation of aztreonam (P. aeruginosa P259-96918; with 4 μg/mL adjuvant): 8 | Fold-potentiation of ceftazidime (P. aeruginosa P259-96918; with 4 μg/mL adjuvant): 4 | Fold-potentiation of erythromycin (P. aeruginosa P259-96918; with 4 μg/mL adjuvant): 8 | Fold-potentiation of rifampicin (P. aeruginosa P259-96918; with 4 μg/mL adjuvant): 128 | MIC alone [5, 7]: > 256 µg/mL | Fold-potentiation of aztreonam ([5]; with 8 μg/mL adjuvant): 8 | Fold-potentiation of ceftazidime ([5]; with 8 μg/mL adjuvant): 4 | Fold-potentiation of erythromycin ([5]; with 8 μg/mL adjuvant): 16 | Fold-potentiation of rifampicin ([5]; with 8 μg/mL adjuvant): 16 | MIC alone [6, 7]: > 256 µg/mL | Fold-potentiation of aztreonam ([6]; with 2 μg/mL adjuvant): 2 | Fold-potentiation of ceftazidime ([6]; with 2 μg/mL adjuvant): 1 | Fold-potentiation of erythromycin ([6]; with 2 μg/mL adjuvant): 1 | Fold-potentiation of rifampicin ([6]; with 2 μg/mL adjuvant): 64 | MIC alone (A. baumannii AB031; [7]): > 256 µg/mL | Fold potentiation of aztreonam (A. baumannii AB031; with 0.5 μg/mL adjuvant): 1 | Fold-potentiation of ceftazidime (A. baumannii AB031; with 0.5 μg/mL adjuvant): 1 | Fold-potentiation of erythromycin (A. baumannii AB031; with 0.5 μg/mL adjuvant): 4 | Fold-potentiation of rifampicin (A. baumannii AB031; with 0.5 μg/mL adjuvant): 8 | MIC alone (E. coli 94393; [7]): > 256 µg/mL | Fold-potentiation of erythromycin (E. coli 94393; with 2 μg/mL adjuvant): 8 | Fold-potentiation of rifampicin (E. coli 94393; with 2 μg/mL adjuvant): 8 | MIC alone (E. coli 94474; [7]): > 256 µg/mL | Fold-potentiation of erythromycin (E. coli 94474; with 4 μg/mL adjuvant): 1 | Fold-potentiation of rifampicin (E. coli 94474; with 4 μg/mL adjuvant): 8 | MIC alone (E. cloacae 121187; 121187, 18 h): 256 µg/mL | MIC alone (E. cloacae 121187; [7]): > 256 µg/mL | Fold-potentiation of erythromycin (E. cloacae 121187; with 8 μg/mL adjuvant): 1 | Fold-potentiation of rifampicin (E. cloacae 121187; with 8 μg/mL adjuvant): 1 | MIC alone (K. pneumoniae 113250; [7]): > 256 µg/mL | Fold-potentiation of erythromycin (K. pneumoniae 113250; with 8 μg/mL adjuvant): 8 | Fold-potentiation of rifampicin (K. pneumoniae 113250; with 8 μg/mL adjuvant): 8 | MIC alone (K. pneumoniae 113254; [7]): > 256 µg/mL | Fold-potentiation of erythromycin (K. pneumoniae 113254; with 8 μg/mL adjuvant): 4 | Fold-potentiation of rifampicin (K. pneumoniae 113254; with 8 μg/mL adjuvant): 4
